Tests used:
Type in all cases: in vivo
[1] = system: Megoura viciae (Vetch Aphid); experiment: Test 1(b): spray of infested tic bean plants, Megoura viciae; conditions: at 50 ppm, 2 days, score 0-3 per replicate, 4 replicates (maximum 12)
Experimental: One or more dilutions of the compounds to be tested were made in 50% aqueous acetone.
(b) Megoura viciae (Vetch Aphid)
Potted tic bean plants previously infected with mixed stages of Megoura were sprayed to run-off using a laboratory turntable sprayer. Treated plants were held in a greenhouse for 2 days and were assessed for aphid mortality using a scoring system, judging the response in comparison with plants treated with 50% aqueous acetone alone, as controls. Each treatment was replicated 4 times.

[2] = system: Spodoptera littoralis (Egyptian Cotton Worm); experiment: Test 2: leaf disc spray test, Spodoptera littoralis larvae; conditions: foliar, application of 500 ppm, 2nd instar larvae on French bean leaf discs, sprayed
Text: One or more of the dilutions of the compounds to be tested were made in 50% aqueous acetone.
Test species: Spodoptera littoralis (Egyptian Cotton Worm)
French bean leaf discs were set in agar in petri dishes and infected with 5 2nd instar larvae. Four replicate dishes were assigned to each treatment and were sprayed under a Potter Tower with the appropriate test dilution. After 2 days, live larvae were transferred to similar dishes containing untreated leaves set in agar. Two or three days later, the dishes were removed from the constant temperature (25° C.) room in which they had been held and the mean percentage mortalities of larvae were determined.

[3] = system: Periplaneta americana; experiment: Test 5: injection into cockroaches; conditions: dose of 5 micrograms/g insect body weight, injected in acetone; five days after treatment
Experimental: 0.2 microliters of an acetone solution of the compound was injected through the soft cuticle between the leg and thorax of ten insects, to give a dose rate of 5 micrograms per g of insect body weight. Ten cockroaches were similarity injected with 0.2 microliters of acetone alone to serve as controls. After treatment the insects were held in plastic boxes with appropriate food. Five days after treatment the numbers of dead and alive insects were counted and percentage mortalities calculated.

[4] = system: Phaedon cochleariae (Mustard Beetle); experiment: Test 3 a): leaf disc spray test, Phaedon cochleariae larvae; conditions: Phaedon cochleariae, foliar, read-out: Phaedon % m 10 ppm
Outline: (§1)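 Compounds were diluted in 50% aqueous acetone and sprayed in a Potter Tower onto turnip leaf discs in agar, each infested with 10 larvae (2nd instar Plutella, 3rd instar Phaedon), with four replicates per treatment. Mean percentage larval mortality was scored 4–5 days later at 25 °C.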

[5] = system: Plutella xylostella (Diamond-back Moth); experiment: whole plant or invertebrate; conditions: foliar, read-out: Plutella % m 500 ppm
Outline: as §1

CCC(C)Sc1c(C#N)nn(-c2c(Cl)cc(C(F)(F)F)cc2Cl)c1N (stereo not shown) [Compound 74, 5-Amino-3-cyano-1-(2,6-dichloro-4-trifluoromethylphenyl)-4-(1-methylpropylthio)pyrazole]
score against all stages of Megoura viciae [1]: 7/12

C=CCSc1c(C#N)nn(-c2c(Cl)cc(C(F)(F)F)cc2Cl)c1N [Compound 75, 4-Allylthio-5-amino-3-cyano-1-(2,6-dichloro-4-trifluoromethylphenyl)pyrazole]
score against all stages of Megoura viciae [1]: 7/12

CC(=O)Nc1c([N+](=O)[O-])c(Br)nn1-c1c(Cl)cc(C(F)(F)F)cc1Cl [Compound 102, 5-Acetamido-3-bromo-1-(2,6-dichloro-4-trifluoromethylphenyl)-4-nitropyrazole]
mortality at 500 ppm [2]: ≥ 70%

CC(=O)Nc1c([N+](=O)[O-])c(Cl)nn1-c1c(Cl)cc(C(F)(F)F)cc1Cl [Compound 103, 5-Acetamido-3-chloro-1-(2,6-dichloro-4-trifluoromethylphenyl)-4-nitropyrazole]
mortality at 500 ppm [2]: ≥ 70%

CC(=O)Nc1c([N+](=O)[O-])c(C#N)nn1-c1c(Cl)cc(C(F)(F)F)cc1Cl [Compound 104, 5-Acetamido-3-cyano-1-(2,6-dichloro-4-trifluoromethylphenyl)-4-nitropyrazole]
mortality at 500 ppm [2]: ≥ 70%

Nc1c([N+](=O)[O-])c(Br)nn1-c1c(Cl)cc(C(F)(F)F)cc1Cl [Compound 105, 5-Amino-3-bromo-1-(2,6-dichloro-4-trifluoromethylphenyl)-4-nitropyrazole]
mortality at 500 ppm [2]: ≥ 70%

Nc1c([N+](=O)[O-])c(Cl)nn1-c1c(Cl)cc(C(F)(F)F)cc1Cl [Compound 106, 5-Amino-3-chloro-1-(2,6-dichloro-4-trifluoromethylphenyl)-4-nitropyrazole]
mortality at 500 ppm [2]: ≥ 70%

N#Cc1nn(-c2c(Cl)cc(C(F)(F)F)cc2Cl)c(N)c1[N+](=O)[O-] [Compound 107, 5-Amino-3-cyano-1-(2,6-dichloro-4-trifluoromethylphenyl)-4-nitropyrazole]
mortality at 500 ppm [2]: ≥ 70%

N#Cc1nn(-c2c(Cl)cc(C(F)(F)F)cc2Cl)c(N)c1C#N [Compound 110, 5-Amino-1-(2,6-dichloro-4-trifluoromethylphenyl)-3,4-dicyanopyrazole]
mortality of Periplaneta americana [3]: 100%
pest or weed control at 10 ppm [4]: 100%
pest or weed control at 500 ppm [5]: 89%

N#Cc1nn(-c2c(Cl)cc(C(F)(F)F)cc2Cl)c(NC(=O)C2CC2)c1C#N [Compound 122, 5-Cyclopropylcarbonamido-1-(2,6-dichloro-4-trifluoromethylphenyl)-3,4-dicyanopyrazole]
mortality of Periplaneta americana [3]: 100%

N#Cc1nn(-c2ccc(C(F)(F)F)cc2Cl)c(N)c1C#N [Compound 125, 5-Amino-1-(2-chloro-4-trifluoromethylphenyl)-3,4-dicyanopyrazole]
mortality of Periplaneta americana [3]: 100%

From patent publication US6372774B1, “Derivatives of N-phenylpyrazoles” (Rhone-Poulenc Agriculture Ltd., priority 1985, dated 2002)
